# Measurements: patent US20250367212A1, “PHARMACOTHERAPY FOR OBSESSIVE-COMPULSIVE DISORDER TARGETING DOPAMINE D1 SIGNAL IN STRIATAL STRIOSOMES” (priority 2022, published 2025)
# Where two headings read alike, the source gives them in different places.
# What was measured:
# [1] = test system: patients with blepharospasm; conditions: for neurological or neuropsychiatric changes during the drug challenge test: in vivo
# [2] = test system: rodent model using fear conditioning; conditions: cited from earlier work
# [3] = n=7 per group, 8 weeks, single drug
Compound,neurological or neuropsychiatric changes during the drug challenge test [1],"change in severity of blepharospasm, BSDI, before vs after drug challenge test [1, 3]","change in severity of blepharospasm, JRS, before vs after drug challenge test [1, 3]","change in severity of blepharospasm, VAS, before vs after drug challenge test [1, 3]","change in severity of blepharospasm, mVAS, before vs after drug challenge test [1, 3]","corrected VAS (mVAS), after the drug challenge test ([1]; L-DOPA group, n=7, DOPACOL 1 to 3 tablets/day over 8 weeks, before 141.3±8.7, P<0.05, severity significantly progressed)","fear memory ([2]; administration of D1 receptor agonist, Chen et al., Brain Research 2020)","fear memory ([2]; single injection of D2 receptor antagonist, Ponnusamy et al., Learning & Memory 2005)"
"CN(C)CCCN1c2ccccc2Sc2ccc(Cl)cc21 [CPZ, chlorpromazine]",No apparent neurological or neuropsychiatric changes,No significant changes in severity,No significant changes in severity,No significant changes in severity,No significant changes in severity,–,–,–
"N[C@@H](Cc1ccc(O)c(O)c1)C(=O)O [L-DOPA, L-3,4-dihydroxyphenylalanine]",No apparent neurological or neuropsychiatric changes,no severity progressed,no severity progressed,no severity progressed,–,178.8±24.3,–,–
Br.Cc1cccc(C2CN(C)CCc3c2cc(O)c(O)c3Cl)c1 (stereo not drawn) [SKF83959],–,–,–,–,–,–,long-term loss of fear memory,–
CCN1CCCC1CNC(=O)c1cc(S(N)(=O)=O)ccc1OC (stereo not drawn) [sulpiride],–,–,–,–,–,–,–,effective in erasing fear memory
